Consider 29 molecules from US20240294534A1, “IMIDAZOTRIAZINE DERIVATIVES AS IL-17 MODULATORS” (UCB BIOPHARMA SRL, priority 2021, published 2024).

The target in the experiment is T1, IL-17A (Homo sapiens, UniProt Q16552).
T1 sequence (Q16552 24-155): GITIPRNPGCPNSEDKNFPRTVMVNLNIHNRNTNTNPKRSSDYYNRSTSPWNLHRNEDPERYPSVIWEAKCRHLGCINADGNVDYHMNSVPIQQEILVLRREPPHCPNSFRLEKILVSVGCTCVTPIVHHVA
In words: Inhibition of IL-17A induced IL-6 release from dermal fibroblast cell line (HDF cell line assay). Type of experiment: cell-based. The following applies: human dermal fibroblasts stimulated with IL-17A (50 pM) + TNF-α (25 pM); IL-6 measured by HTRF; pIC50 = -log10[IC50], IC50 molar. From the text:
Inhibition of IL-17A Induced IL-6 Release from Dermal Fibroblast Cell Line
The purpose of this assay is to test the neutralising ability to IL-17 proteins, in a human primary cell system. Stimulation of normal human dermal fibroblasts (HDF) with IL-17 alone produces only a very weak signal but in combination with certain other cytokines, such as TNFα, a synergistic effect can be seen in the production of inflammatory cytokines, i.e. IL-6.
HDFs were stimulated with IL-17A (50 pM) in combination with TNF-α (25 pM). The resultant IL-6 response was then measured using a homogenous time-resolved FRET kit from Cisbio. The kit utilises two monoclonal antibodies, one labelled with Eu-Cryptate (Donor) and the second with d2 or XL665 (Acceptor). The intensity of the signal is proportional to the concentration of IL-6 present in the sample (Ratio is calculated by 665/620×104).
The ability of a compound to inhibit IL-17 induced IL-6 release from human dermal fibroblasts is measured in this assay.
HDF cells (Sigma #106-05n) were cultured in complete media (DMEM+10% FCS+2 mM L-glutamine) and maintained in a tissue culture flask using standard techniques. Cells were harvested from the tissue culture flask on the morning of the assay using TrypLE (Invitrogen #12605036). The TrypLE was neutralised using complete medium (45 mL) and the cells were centrifuged at 300×g for 3 minutes. The cells were re-suspended in complete media (5 mL) counted and adjusted to a concentration of 3.125×10^4 cells/mL before being added to the 384 well assay plate (Corning #3701) at 40 μL per well. The cells were left for a minimum of three hours, at 37° C./5% CO2, to adhere to the plate.
Compounds were serially diluted in DMSO before receiving an aqueous dilution into a 384 well dilution plate (Greiner #781281), where 5 μL from the titration plate was transferred to 45 μL of complete media and mixed to give a solution containing 10% DMSO.
Mixtures of TNFα and IL-17 cytokine were prepared in complete media to final concentrations of TNFα 25 pM/IL-17A 50 pM, then 30 μL of the solution was added to a 384 well reagent plate (Greiner #781281).
10 μL from the aqueous dilution plate was transferred to the reagent plate containing 30 μL of the diluted cytokines, to give a 2.5% DMSO solution. The compounds were incubated with the cytokine mixtures for 5 h at 37° C. After the incubation, 10 μL was transferred to the assay plate, to give a 0.5% DMSO solution, then incubated for 18-20 h at 37° C./5% CO2.
From the Cisbio IL-6 FRET kit (Cisbio #62IL6PEB) europium cryptate and Alexa 665 were diluted in reconstitution buffer and mixed 1:1, as per kit insert. To a white low volume 384 well plate (Greiner #784075) were added FRET reagents (10 μL), then supernatant (10 μL) was transferred from the assay plate to Greiner reagent plate. The mixture was incubated at room temperature for 3 h with gentle shaking (<400 rpm) before being read on a Synergy Neo 2 plate reader (Excitation: 330 nm; Emission: […]).

Each structure is given as a SMILES string.

For orientation: IC50 means the point on the concentration scale where inhibition reaches its midpoint. With `Cc1nonc1C(=O)N[C@H](c1cn2ncc([C@H]3C[C@@](C)(O)CCN3C(=O)C34CC(F)(C3)C4)nc2n1)C1CCC(F)(F)CC1` (single isomer, unassigned) [Example 37], the IC50 was 794 nM. For the molecule `Cc1nonc1C(=O)N[C@H](c1cn2ncc([C@@H]3COCCN3C(=O)[C@@H]3CCC(F)(F)CO3)nc2n1)C1CCC(F)(F)CC1` (single isomer, unassigned) [Example 7], the IC50 was 6.31 nM. Turning to `Cc1nonc1C(=O)N[C@H](c1cn2ncc([C@H]3C[C@@H](O)CCN3C(=O)[C@@H]3CCC(F)(F)CO3)nc2n1)C1CCC(F)(F)CC1` (single isomer, unassigned) [Example 43], the IC50 was 25.1 nM.

`O=C([C@@H]1CCC(F)(F)CO1)N1CC[C@](O)(C(F)(F)F)C[C@H]1c1cnn2cc([C@@H](NC(=O)C3(F)CC3)C3CCC(F)(F)CC3)nc2n1` (single isomer, unassigned) [Example 20]: the IC50 is 15.8 nM. Under `Cc1nonc1C(=O)N[C@H](c1cn2ncc([C@@H]3C[C@@](C)(O)CCN3C(=O)C34CC(F)(C3)C4)nc2n1)C1CCC(F)(F)CC1` (single isomer, unassigned) [Example 40] stands 79.4 nM; under `Cc1nonc1C(=O)N[C@H](c1cn2ncc([C@@H]3COCCN3C(=O)[C@@H]3CCC(F)(F)CO3)nc2n1)[C@H]1CC[C@H](C(F)(F)F)CC1` (single isomer, unassigned) [Example 25], 316 nM; under `Cc1nonc1C(=O)N[C@H](c1cn2ncc([C@H]3C[C@](O)(C(F)F)CCN3C(=O)C34CC(F)(C3)C4)nc2n1)C1CCC(F)(F)CC1` (single isomer, unassigned) [Example 27], 251 nM. For `CC(C)n1nccc1C(=O)N[C@H](c1cn2ncc(C3(C(=O)NCC(C)(F)F)CCC(F)(F)CC3)nc2n1)C1CCC(F)(F)CC1` [Example 16, N—[(S)-(4,4-Difluorocyclohexyl){3-[1-(2,2-difluoropropylcarbamoyl)-4,4-difluoro-cyclohexyl]imidazo[1,2-b][1,2,4]triazin-6-yl}methyl]-2-isopropylpyrazole-3-carboxamide], the IC50 is 12.6 nM. On to `Cc1nonc1C(=O)NC(c1cn2ncc(C3COCCN3C(=O)C3CCC(F)(F)CO3)nc2n1)C1CCC(F)(F)CC1` (single isomer, unassigned) [Example 8], for which the IC50 is 126 nM. Turning to `Cn1nccc1C(=O)N[C@H](c1cn2ncc([C@@H]3C[C@@](O)(C(F)F)CCN3C(=O)[C@@H]3CCC(F)(F)CO3)nc2n1)C1CCC(F)(F)CC1` (single isomer, unassigned) [Example 46], the IC50 was 12.6 nM. For the molecule `Cc1nonc1C(=O)N[C@H](c1cn2ncc([C@H]3COCCN3C(=O)[C@@H]3CCC(F)(F)CO3)nc2n1)C(C1CC1)C1CC1` (single isomer, unassigned) [Example 6], the IC50 is 100 nM. Under `Cc1nonc1C(=O)N[C@H](c1cn2ncc([C@H]3C[C@](C)(O)CCN3C(=O)[C@@H]3CCC(F)(F)CO3)nc2n1)C1CCC(F)(F)CC1` (single isomer, unassigned) [Example 39] stands 5.01 nM; under `Cc1nonc1C(=O)N[C@H](c1cn2ncc([C@H]3C[C@@](C)(O)CCN3C(=O)[C@@H]3CCC(F)(F)CO3)nc2n1)C1CCC(F)(F)CC1` (single isomer, unassigned) [Example 35], 126 nM; under `CC(C)n1ncnc1C(=O)N[C@H](c1cn2ncc([C@H]3C[C@@H](O)CCN3C(=O)[C@@H]3CCC(F)(F)CO3)nc2n1)C1CCC(F)(F)CC1` (single isomer, unassigned) [Example 50], 12.6 nM.

As for `CC(C)n1ncnc1C(=O)N[C@H](c1cn2ncc([C@@H]3C[C@@](O)(C(F)F)CCN3C(=O)[C@@H]3CCC(F)(F)CO3)nc2n1)C1CCC(F)(F)CC1` (single isomer, unassigned) [Example 48], the IC50 is 6.31 nM. Turning to `Cc1nonc1C(=O)N[C@H](c1cn2ncc(C3(C(=O)N4CC(C(F)(F)F)C4)CCN(C4COC4)CC3)nc2n1)C1CCC(F)(F)CC1` [Example 55, N—[(S)-(4,4-Difluorocyclohexyl)(3-{1-(oxetan-3-yl)-4-[3-(trifluoromethyl)azetidine-1-carbonyl]piperidin-4-yl}imidazo[1,2-b][1,2,4]triazin-6-yl)methyl]-4-methyl-1,2,5-oxadiazole-3-carboxamide], the IC50 was 63.1 nM. Under `Cc1nonc1C(=O)N[C@H](c1cn2ncc([C@H]3C[C@](O)(C(F)(F)F)CCN3C(=O)C34CC(F)(C3)C4)nc2n1)C(C1CC1)C1CC1` (single isomer, unassigned) [Example 2] stands 158 nM; under `Cc1nonc1C(=O)N[C@H](c1cn2ncc([C@@H]3C[C@](O)(C(F)(F)F)CCN3C(=O)C34CC(F)(C3)C4)nc2n1)C1CCC(F)(F)CC1` (single isomer, unassigned) [Example 32], 63.1 nM. Under `Cc1nonc1C(=O)N[C@H](c1cn2ncc([C@@H]3C[C@@](O)(C(F)(F)F)CCN3C(=O)C34CC(F)(C3)C4)nc2n1)C1CCC(F)(F)CC1` (single isomer, unassigned) [Example 9] stands 6.31 nM. Turning to `Cc1nonc1C(=O)N[C@H](c1cn2ncc([C@@H]3C[C@@](C)(O)CCN3C(=O)[C@@H]3CCC(F)(F)CO3)nc2n1)C1CCC(F)(F)CC1` (single isomer, unassigned) [Example 38], the IC50 was 126 nM. Under `Cc1nonc1C(=O)N[C@H](c1cn2ncc([C@@H]3C[C@](O)(C(F)F)CCN3C(=O)C34CC(F)(C3)C4)nc2n1)C1CCC(F)(F)CC1` (single isomer, unassigned) [Example 28] stands 39.8 nM; under `Cc1nonc1C(=O)N[C@H](c1cn2ncc([C@@H]3COCCN3C(=O)C34CC(F)(C3)C4)nc2n1)C1CCC(F)(F)CC1` (single isomer, unassigned) [Example 3], 79.4 nM. Regarding `O=C(N[C@H](c1cn2ncc([C@H]3C[C@](O)(C(F)(F)F)CCN3C(=O)C34CC(F)(C3)C4)nc2n1)C1CCC(F)(F)CC1)C1(F)CC1` (single isomer, unassigned) [Example 12], the IC50 was 7940 nM. Under `Cc1nonc1C(=O)N[C@H](c1cn2ncc(C3(C(=O)N4CC(F)(F)C(F)(F)C4)CCN(C4COC4)CC3)nc2n1)C1CCC(F)(F)CC1` [Example 54, N—[(S)-(4,4-Difluorocyclohexyl){3-[1-(oxetan-3-yl)-4-(3,3,4,4-tetrafluoropyrrolidine-1-carbonyl)piperidin-4-yl]imidazo[1,2-b][1,2,4]triazin-6-yl}methyl]-4-methyl-1,2,5-oxadiazole-3-carboxamide] stands 7.94 nM; under `Cc1nonc1C(=O)N[C@H](c1cn2ncc([C@@H]3C[C@@](O)(C(F)(F)F)CCN3C(=O)[C@@H]3CCC(F)(F)CO3)nc2n1)C1CCC(F)(F)CC1` (single isomer, unassigned) [Example 18], 2.51 nM. Under `Cc1nonc1C(=O)N[C@H](c1cn2ncc([C@H]3C[C@H](O)CCN3C(=O)[C@@H]3CCC(F)(F)CO3)nc2n1)C1CCC(F)(F)CC1` (single isomer, unassigned) [Example 45] stands 3.98 nM; under `Cc1nonc1C(=O)N[C@H](c1cn2ncc([C@H]3C[C@](O)(C(F)(F)F)CCN3C(=O)[C@@H]3CCC(F)(F)CO3)nc2n1)C1CCC(F)(F)CC1` (single isomer, unassigned) [Example 19], 100 nM; under `Cc1nonc1C(=O)N[C@H](c1cn2ncc([C@@H]3C[C@@](O)(C(F)(F)F)CCN3C(=O)C34CC(F)(C3)C4)nc2n1)C(C1CC1)C1CC1` (single isomer, unassigned) [Example 1], 7.94 nM. Consider `Cc1nonc1C(=O)N[C@H](c1cn2ncc([C@H]3C[C@](C)(O)CCN3C(=O)C34CC(F)(C3)C4)nc2n1)C1CCC(F)(F)CC1` (single isomer, unassigned) [Example 41], for which the IC50 was 794 nM.
